In data set [1] the test system is RheoSwitch® Therapeutic System (RTS) gene expression. As to the kind of experiment: In vivo induction of RTS SEAP reporter in electroporated mice. Details: species or system C57BL6 mice. The note with it: intraperitoneal injection 26 nmol/mouse; monitored seventeen days. The source says:
The wild-type D, E, and F domains from spruce budworm Choristoneura fumiferana EcR (“CfEcR-DEF”; SEQ ID NO: 1) were mutated [V107 (gtt)→1107 (att) and Y127 (tac)→E127 (gag)] and fused to a GAL4 DNA binding domain (“Gal4DBD1-147”; SEQ ID NO: 2). Helices 1 through 8 of the EF domains from Homo sapiens RXRPβ (“HsRXRβ-EF”; nucleotides 1-465 of SEQ ID NO: 4) and helices 9 through 12 of the EF domains of Locusta migratoria Ultraspiracle Protein (“LmUSP-EF”; nucleotides 403-630 of SEQ ID NO: 5) were fused to the transactivation domain from VP16 (“VP16AD”; SEQ ID NO: 6), which regulates a reporter gene human secreted alkaline phosphatase (“SEAP”, SEQ ID NO: 12) that was placed under the control of a 6xGAL4 response element (SEQ ID NO: 13) and a transthyretin promoter (SEQ ID NO: 14). Each element of the gene switch was on a separate plasmid. Receptor expression was under the control of a CMV promoter (SEQ ID NO: 15). Induction was evaluated by the amount of reporter protein expressed in the presence of ligand.
SEAP expression in serum of mice was evaluated after electroporation of the gene switch into mouse quadriceps. Mice were anesthetized with 2 μL/g of a mixture of ketamine (100 mg/mL) and xylazine (20 mg/mL). Animals were then shaved, DNA vectors injected into the muscle in a volume of 2×50 μL polyglutamic acid (12 mg/mL water), electrode conductivity gel applied, and an electrode caliber (1 cm×1 cm; model 384) was placed on hind leg. The muscle was electroporated with 200 V/cm, 8 times, for 20 msec/pulse, at 1 sec time intervals. The transverse electrical field direction was reversed after the animals received half of the pulses. Electroporation was performed with an ECM 830 electroporator from BTX Molecular Delivery Systems.
[…] In other experiments the concentration of ligand was decreased to 26 nmol/50 μL of DMSO/mouse. […]
Mouse serum was obtained by centrifugation of blood acquired by retroorbital bleeding with a small glass capillary tube. SEAP quantification was determined using a Clontech Great Escape chemiluminescence kit and by comparison with the Clontech SEAP standard. […]

The nature of data set [2]: Intrinsic dissolution of compressed pellets in 1% Polysorbate 80. The class given is physicochemical. The note with it: 1% Polysorbate 80 in di-water, 37° C., up to 120 minutes. The procedure:
Next, the intrinsic dissolution profiles of R enantiomer and racemate of 2-ethyl-3-methoxy-benzoic acid N′-(1-tert-butyl-butyl)-N′-(3,5-dimethyl-benzoyl)-hydrazide were determined using compressed pellets (7 mm diameter, 100 mg) in 1% Polysorbate 80 in Di-water at 37° C., according to the following test conditions:
Medium: 1% Polysorbate 80 in di-water (vacuum filtered thru a 0.8 μM filter)
Sampling volume: 1 mL (filtered thru 30 micron)
Analysis: HPLC (prepare standard solutions from each lot)
Sample size: n=2 pellets/test substance
After 120 minutes, it was observed that the pellets for both substances remained intact in the medium.

Data set [3] in a line: Solubility and appearance of 20 mg/mL preparations in Labrasol. The class given is physicochemical. To be noted: sonicated at 25-28° C. Here is the method:
These Labrasol dosing preparations utilized micronized R enantiomer, but non-micronized racemate. To address the possibility that the non-micronized racemate specimen might bias its dissolution rate in Labrasol, an independent experiment was performed. In this experiment, the solubility and appearance of 20 mg/mL preparations of micronized and non-micronized racemate were examined. Micronized racemate (lot REH-28-9-1/PYAP-2-8-2-2M), non-micronized racemate (lot # PYAP-2-8-2-2), and micronized R enantiomer (lot # REH-28-4-2) were each suspended in Labrasol, swirled by hand, and then sonicated in a Branson 2100 table top sonicator at 25-28° C. for 3×5 min intervals and a 1×10 min interval, interspersed with swirling by hand. […] By visual inspection, the quantity of undissolved material in micronized and non-micronized racemate samples was substantially the same. […] Some larger crystal fragments remained in the non-micronized sample. Since both micronized and non-micronized samples of racemate result in similar amounts of undissovled material, it appears that the major difference between R enantiomer and racemate Labrasol preparations is the intrinsic solubility rather than the starting particle size of the solute.

Regarding `CCC[C@@H](N(NC(=O)c1cccc(OC)c1CC)C(=O)c1cc(C)cc(C)c1)C(C)(C)C` [Example 1, (R)-3,5-Dimethyl-benzoic Acid N-(1-tert-butyl-butyl)-N′-(2-ethyl-3-methoxy-benzoyl)-hydrazide], the “RTS gene reporter (SEAP) expression in mouse serum” value in data set [1] is recorded as “induces substantial RTS gene reporter expression”. Moreover, in data set [2], the “release from compressed pellets (intrinsic dissolution)” value was “under the detection limit”. Also, in data set [3], the “solubility and appearance in Labrasol” value is given as “readily dissolved”.

Regarding `CCCC(N(NC(=O)c1cccc(OC)c1CC)C(=O)c1cc(C)cc(C)c1)C(C)(C)C` (racemic) [rac-1, rac-2-ethyl-3-methoxy-benzoic acid N′-(1-tert-butyl-butyl)-N′-(3,5-dimethyl-benzoyl)-hydrazide], the “RTS gene reporter (SEAP) expression in mouse serum” value in data set [1] is on record as “induces modest RTS gene reporter expression”. Further, the “release from compressed pellets (intrinsic dissolution)” value in data set [2] is “under the detection limit”. Also, the “solubility and appearance in Labrasol” value in data set [3] was “remained cloudy with suspended fine particles”.

The record behind these values is US20200270225A1, “Chiral Diacylhydrazine Ligands for Modulating the Expression of Exogenous Genes via an Ecdysone Receptor Complex” (Intrexon Corporation, priority 2007, published 2020).
